PubChem BioAssay AID2060488 (Molecular Pharmacology Branch, DTP, NCI, 2025)

Tested on: 966289-007-R4-J1-PDC complex spheroid viability
Test: Anticancer human tumor 966289-007-R4-J1-PDC patient-derived pancreatic adenocarcinoma cell line growth inhibition [GQUAD]
Details: for IC50: curve of first compound; for viability, T/C: stronger effect = lower value
Summary of the method: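 Viability of tumor cells grown as complex spheroids with endothelial and stromal cells, exposed to drug combinations. Top concentration at or near clinical Cmax (else 10 microM), diluted in half-log increments.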

[1] = second compound 0.0316 µM, first compound 0.0316 µM
[2] = second compound 0.0316 µM, first compound 0.1 µM
[3] = second compound 0.0316 µM, first compound 0.316 µM
[4] = second compound 0.0316 µM, first compound 1 µM
[5] = second compound 0.0316 µM, first compound 3.16 µM
[6] = second compound 0.0316 µM, first compound 10 µM
[7] = second compound 0.1 µM, first compound 0.0316 µM
[8] = second compound 0.1 µM, first compound 0.1 µM
[9] = second compound 0.1 µM, first compound 0.316 µM
[10] = second compound 0.1 µM, first compound 1 µM
[11] = second compound 0.1 µM, first compound 3.16 µM
[12] = second compound 0.1 µM, first compound 10 µM
[13] = second compound 0.316 µM, first compound 0.0316 µM
[14] = second compound 0.316 µM, first compound 0.1 µM
[15] = second compound 0.316 µM, first compound 0.316 µM
[16] = second compound 0.316 µM, first compound 1 µM
[17] = second compound 0.316 µM, first compound 3.16 µM
[18] = second compound 0.316 µM, first compound 10 µM
[19] = second compound 1 µM, first compound 0.0316 µM
[20] = second compound 1 µM, first compound 0.1 µM
[21] = second compound 1 µM, first compound 0.316 µM
[22] = second compound 1 µM, first compound 1 µM
[23] = second compound 1 µM, first compound 3.16 µM
[24] = second compound 1 µM, first compound 10 µM
[25] = second compound 3.16 µM, first compound 0.0316 µM
[26] = second compound 3.16 µM, first compound 0.1 µM
[27] = second compound 3.16 µM, first compound 0.316 µM
[28] = second compound 3.16 µM, first compound 1 µM
[29] = second compound 3.16 µM, first compound 3.16 µM
[30] = second compound 3.16 µM, first compound 10 µM
[31] = second compound 10 µM, first compound 0.0316 µM
[32] = second compound 10 µM, first compound 0.1 µM
[33] = second compound 10 µM, first compound 0.316 µM
[34] = second compound 10 µM, first compound 1 µM
[35] = second compound 10 µM, first compound 3.16 µM
[36] = second compound 10 µM, first compound 10 µM
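Further: spheroids exposed to the agents for seven days before readout.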
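Wherever viability, T/C is given: percent viability relative to DMSO vehicle control wells taken as 100%.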

`Cc1cccc(N(C)C(=O)C2C(O)CCN2c2nc(C)cc(C(F)(F)F)c2C#N)c1` (stereo unspecified) + Cc1cnc(CNC(=O)c2c(=O)c3ccc(N4CCCN(C)CC4)nc3n3c2sc2ccccc23)cn1 gave an IC50 (second compound 0.0316 µM) greater than 10 µM, an IC50 (second compound 0.1 µM) of less than 0.0316 µM and an IC50 (second compound 0.316 µM) of less than 0.0316 µM. For the same compound, the IC50 (second compound 1 µM) was less than 0.0316 µM, the IC50 (second compound 3.16 µM) was less than 0.0316 µM and the IC50 (second compound 10 µM) was less than 0.0316 µM. It also gave a viability, T/C [1] of 111%, a viability, T/C [2] of 102% and a viability, T/C [3] of 103%. It also gave a viability, T/C [4] of 102%, a viability, T/C [5] of 110% and a viability, T/C [6] of 106%. It also gave a viability, T/C [7] of 40.1%, a viability, T/C [8] of 30.9% and a viability, T/C [9] of 36.3%. It also gave a viability, T/C [10] of 34.9%, a viability, T/C [11] of 36.2% and a viability, T/C [12] of 40.1%. The viability, T/C [13] was 12.1%, the viability, T/C [14] was 11.4% and the viability, T/C [15] was 10.2%. The viability, T/C [16] was 13.8%, the viability, T/C [17] was 12.7% and the viability, T/C [18] was 13.3%. The viability, T/C [19] was 6.47%, the viability, T/C [20] was 6.97% and the viability, T/C [21] was 7.01%. The viability, T/C [22] was 6.54%, the viability, T/C [23] was 6.3% and the viability, T/C [24] was 7.05%. It also gave a viability, T/C [25] of 5.3%, a viability, T/C [26] of 4.93% and a viability, T/C [27] of 4.77%. The viability, T/C [28] was 5.55%, the viability, T/C [29] was 5.79% and the viability, T/C [30] was 5.35%. It also gave a viability, T/C [31] of 0.13%, a viability, T/C [32] of 0.18% and a viability, T/C [33] of 0.17%. For the same compound, the viability, T/C [34] was 0.17%, the viability, T/C [35] was 0.51% and the viability, T/C [36] was 0.38%.

In the case of `Cn1ncnc1[C@H]1c2n[nH]c(=O)c3cc(F)cc(c23)N[C@@H]1c1ccc(F)cc1` + Cc1cnc(CNC(=O)c2c(=O)c3ccc(N4CCCN(C)CC4)nc3n3c2sc2ccccc23)cn1, the IC50 (second compound 0.0316 µM) is reported as 0.0199 µM, the IC50 (second compound 0.1 µM) is reported as less than 0.000999 µM and the IC50 (second compound 0.316 µM) is reported as less than 0.000999 µM. It also gave an IC50 (second compound 1 µM) of less than 0.000999 µM, an IC50 (second compound 3.16 µM) of less than 0.000999 µM and an IC50 (second compound 10 µM) of less than 0.000999 µM. For the same compound, the viability, T/C (second compound 0.0316 µM, first compound 0.000999 µM) was 110%, the viability, T/C (second compound 0.0316 µM, first compound 0.00316 µM) was 98.6% and the viability, T/C (second compound 0.0316 µM, first compound 0.00999 µM) was 85.6%. The viability, T/C [1] was 25.9%, the viability, T/C (second compound 0.0316 µM, first compound 0.0999 µM) was 12.9% and the viability, T/C [3] was 7.23%. The viability, T/C (second compound 0.1 µM, first compound 0.000999 µM) was 42.7%, the viability, T/C (second compound 0.1 µM, first compound 0.00316 µM) was 25.4% and the viability, T/C (second compound 0.1 µM, first compound 0.00999 µM) was 17.3%. For the same compound, the viability, T/C [7] was 12.5%, the viability, T/C (second compound 0.1 µM, first compound 0.0999 µM) was 5.67% and the viability, T/C [9] was 3.67%. For the same compound, the viability, T/C (second compound 0.316 µM, first compound 0.000999 µM) was 13.8%, the viability, T/C (second compound 0.316 µM, first compound 0.00316 µM) was 10% and the viability, T/C (second compound 0.316 µM, first compound 0.00999 µM) was 7.01%. It also gave a viability, T/C [13] of 6.26%, a viability, T/C (second compound 0.316 µM, first compound 0.0999 µM) of 4.34% and a viability, T/C [15] of 2.5%. It also gave a viability, T/C (second compound 1 µM, first compound 0.000999 µM) of 5.61%, a viability, T/C (second compound 1 µM, first compound 0.00316 µM) of 5.81% and a viability, T/C (second compound 1 µM, first compound 0.00999 µM) of 4.63%. The viability, T/C [19] was 3.57%, the viability, T/C (second compound 1 µM, first compound 0.0999 µM) was 2.89% and the viability, T/C [21] was 1.85%. It also gave a viability, T/C (second compound 3.16 µM, first compound 0.000999 µM) of 4.32%, a viability, T/C (second compound 3.16 µM, first compound 0.00316 µM) of 4.8% and a viability, T/C (second compound 3.16 µM, first compound 0.00999 µM) of 3.43%. For the same compound, the viability, T/C [25] was 2.17%, the viability, T/C (second compound 3.16 µM, first compound 0.0999 µM) was 0.89% and the viability, T/C [27] was 0.51%. It also gave a viability, T/C (second compound 10 µM, first compound 0.000999 µM) of 0.1%, a viability, T/C (second compound 10 µM, first compound 0.00316 µM) of 0.15% and a viability, T/C (second compound 10 µM, first compound 0.00999 µM) of 0.12%. For the same compound, the viability, T/C [31] was 0.13%, the viability, T/C (second compound 10 µM, first compound 0.0999 µM) was 0.66% and the viability, T/C [33] was 0.13%.

`O=C(c1cc(Cc2n[nH]c(=O)c3ccccc23)ccc1F)N1CCN(C(=O)C2CC2)CC1` + Cc1cnc(CNC(=O)c2c(=O)c3ccc(N4CCCN(C)CC4)nc3n3c2sc2ccccc23)cn1 showed an IC50 (second compound 0.0316 µM) of 1.38 µM, an IC50 (second compound 0.1 µM) of less than 0.0316 µM and an IC50 (second compound 0.316 µM) of less than 0.0316 µM. The IC50 (second compound 1 µM) was less than 0.0316 µM, the IC50 (second compound 3.16 µM) was less than 0.0316 µM and the IC50 (second compound 10 µM) was less than 0.0316 µM. For the same compound, the viability, T/C [1] was 113%, the viability, T/C [2] was 106% and the viability, T/C [3] was 98.9%. For the same compound, the viability, T/C [4] was 58.9%, the viability, T/C [5] was 23.3% and the viability, T/C [6] was 4.08%. The viability, T/C [7] was 33.8%, the viability, T/C [8] was 26% and the viability, T/C [9] was 22%. It also gave a viability, T/C [10] of 17.1%, a viability, T/C [11] of 8.17% and a viability, T/C [12] of 4.33%. The viability, T/C [13] was 13.5%, the viability, T/C [14] was 11% and the viability, T/C [15] was 9.09%. For the same compound, the viability, T/C [16] was 7.84%, the viability, T/C [17] was 3.87% and the viability, T/C [18] was 2.13%. It also gave a viability, T/C [19] of 5.15%, a viability, T/C [20] of 5.03% and a viability, T/C [21] of 4.87%. For the same compound, the viability, T/C [22] was 4.62%, the viability, T/C [23] was 3% and the viability, T/C [24] was 1.77%. It also gave a viability, T/C [25] of 3.25%, a viability, T/C [26] of 5.08% and a viability, T/C [27] of 3.5%. The viability, T/C [28] was 2.42%, the viability, T/C [29] was 0.47% and the viability, T/C [30] was 0.13%. It also gave a viability, T/C [31] of 0.11%, a viability, T/C [32] of 0.34% and a viability, T/C [33] of 0.18%. The viability, T/C [34] was 0.14%, the viability, T/C [35] was 0.16% and the viability, T/C [36] was 0.58%.
